The SangsterLogP compilation

Key:
[1] = method code SF-CR+AS, from DOI: 10.1016/0003-9861(68)90547-x, PMID: 5677592
[2] = method code SF-AQ, from DOI: 10.1016/0003-9861(68)90547-x, PMID: 5677592
[3] = method code SF-CR, from DOI: 10.1016/0003-9861(68)90547-x, PMID: 5677592

SMILES: COc1cccc(O[C@@H]2O[C@H](CO)[C@@H](O)[C@H](O)[C@H]2O)c1
- logP [1]: -0.52

SMILES: Nc1ccccc1O[C@@H]1O[C@H](CO)[C@@H](O)[C@H](O)[C@H]1O
- logP [1]: -1.23

SMILES: OC[C@H]1O[C@@H](Oc2ccc(I)cc2)[C@H](O)[C@@H](O)[C@@H]1O
- logP [1]: 0.75

SMILES: COc1ccc(O[C@@H]2O[C@H](CO)[C@@H](O)[C@H](O)[C@H]2O)cc1
- logP [1]: -0.73

SMILES: CC(C)(C)c1ccc(O[C@@H]2O[C@H](CO)[C@@H](O)[C@H](O)[C@H]2O)cc1
- logP [1]: 1.18

SMILES: OC[C@H]1O[C@@H](OC2CCCCC2)[C@H](O)[C@@H](O)[C@@H]1O
- logP [1]: -0.63

SMILES: OC[C@H]1O[C@@H](Oc2cccc(C(F)(F)F)c2)[C@H](O)[C@@H](O)[C@@H]1O
- logP [1]: 0.49

SMILES: Cc1cc(C)cc(O[C@@H]2O[C@H](CO)[C@@H](O)[C@H](O)[C@H]2O)c1
- logP [1]: 0.26

SMILES: CC(C)(C)c1cccc(O[C@@H]2O[C@H](CO)[C@@H](O)[C@H](O)[C@H]2O)c1
- logP [1]: 1.01

SMILES: COc1ccccc1O[C@@H]1O[C@H](CO)[C@@H](O)[C@H](O)[C@H]1O
- logP [1]: -1.04

SMILES: Cc1ccc(C(C)C)c(O[C@@H]2O[C@H](CO)[C@@H](O)[C@H](O)[C@H]2O)c1
- logP [1]: 1.07

SMILES: CCc1cccc(O[C@@H]2O[C@H](CO)[C@@H](O)[C@H](O)[C@H]2O)c1
- logP [1]: 0.31

SMILES: OC[C@H]1O[C@@H](Oc2ccc(O)cc2)[C@H](O)[C@@H](O)[C@@H]1O
- logP [1]: -1.35

SMILES: OCc1ccccc1O[C@@H]1O[C@H](CO)[C@@H](O)[C@H](O)[C@H]1O
- logP [1]: -1.22

SMILES: OC[C@H]1O[C@@H](Oc2ccc3ccccc3c2)[C@H](O)[C@@H](O)[C@@H]1O
- logP [1]: 0.76

SMILES: OC[C@H]1OC(OCc2ccccc2)[C@H](O)[C@@H](O)[C@@H]1O (stereo partly specified)
- logP [1]: -0.7

SMILES: OC[C@H]1O[C@@H](Oc2ccccc2I)[C@H](O)[C@@H](O)[C@@H]1O
- logP [1]: 0.27

SMILES: OC[C@H]1O[C@@H](Oc2ccc(Cl)cc2)[C@H](O)[C@@H](O)[C@@H]1O
- logP [2]: 0.26

SMILES: CC(C)c1cccc(O[C@@H]2O[C@H](CO)[C@H](O)[C@H](O)[C@H]2O)c1
- logP [1]: 0.65

SMILES: CC(C)(C)c1cc(OC2OC(CO)C(O)C(O)C2O)cc(C(C)(C)C)c1 (stereo unspecified)
- logP [3]: 2.73

SMILES: Nc1ccc(O[C@@H]2O[C@H](CO)[C@@H](O)[C@H](O)[C@H]2O)cc1
- logP [1]: -2.67

SMILES: Cc1ccc(O[C@@H]2O[C@H](CO)[C@@H](O)[C@H](O)[C@H]2O)cc1
- logP [1]: -0.16

SMILES: OC[C@H]1O[C@@H](Oc2ccccc2)[C@H](O)[C@@H](O)[C@@H]1O
- logP [1]: -0.71

SMILES: O=[N+]([O-])c1ccccc1O[C@@H]1O[C@H](CO)[C@@H](O)[C@H](O)[C@H]1O
- logP [1]: -0.78

SMILES: Cc1cccc(O[C@@H]2O[C@H](CO)[C@@H](O)[C@H](O)[C@H]2O)c1
- logP [1]: -0.2

SMILES: Cc1ccccc1O[C@@H]1O[C@H](CO)C(O)[C@H](O)[C@H]1O (stereo in doubt)
- logP [1]: -0.16
